PubChem BioAssay (NCI)
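Tested at 5 concentrations; 48 h exposure; 96-well plates; endpoints linearly interpolated, else capped at highest concentration. GI50: concentration for 50% inhibition of growth. TGI denotes the concentration required for complete inhibition of growth.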

Experiments:
Assay in all cases: NCI-60 cell line screen, 48 h
A549 NSCLC = system: A549 NSCLC
BT-549 breast = system: BT-549 breast
EKVX NSCLC = system: EKVX NSCLC
HCC-2998 colon = system: HCC-2998 colon
HCT-15 colon = system: HCT-15 colon
HL-60(TB) leukemia = system: HL-60(TB) leukemia
HOP-92 NSCLC = system: HOP-92 NSCLC
HT29 colon = system: HT29 colon
IGROV1 ovarian = system: IGROV1 ovarian
K-562 leukemia = system: K-562 leukemia
M14 melanoma = system: M14 melanoma
MCF7 breast = system: MCF7 breast
MDA-MB-435 = system: MDA-MB-435
MOLT-4 leukemia = system: MOLT-4 leukemia
NCI-H226 lung = system: NCI-H226 lung
NCI-H23 lung = system: NCI-H23 lung
NCI-H460 lung = system: NCI-H460 lung
OVCAR-3 ovarian = system: OVCAR-3 ovarian
OVCAR-4 ovarian = system: OVCAR-4 ovarian
OVCAR-5 ovarian = system: OVCAR-5 ovarian
PC-3 prostate = system: PC-3 prostate
RPMI-8226 leukemia = system: RPMI-8226 leukemia
RXF 393 renal = system: RXF 393 renal
SF-539 CNS = system: SF-539 CNS
SK-MEL-2 melanoma = system: SK-MEL-2 melanoma
SK-MEL-28 melanoma = system: SK-MEL-28 melanoma
SK-MEL-5 melanoma = system: SK-MEL-5 melanoma
SK-OV-3 ovarian = system: SK-OV-3 ovarian
SNB-19 CNS = system: SNB-19 CNS
SR leukemia = system: SR leukemia
SW-620 colon = system: SW-620 colon
TK-10 renal = system: TK-10 renal
U251 CNS = system: U251 CNS
UACC-257 melanoma = system: UACC-257 melanoma
UACC-62 melanoma = system: UACC-62 melanoma
UO-31 renal = system: UO-31 renal
A498 renal = system: A498 renal
DU-145 prostate = system: DU-145 prostate
HOP-62 NSCLC = system: HOP-62 NSCLC
HS 578T breast = system: HS 578T breast
KM12 colon = system: KM12 colon
NCI/ADR-RES ovarian = system: NCI/ADR-RES ovarian
SF-295 CNS = system: SF-295 CNS
SNB-75 CNS = system: SNB-75 CNS
CAKI-1 renal = system: CAKI-1 renal
MALME-3M melanoma = system: MALME-3M melanoma
786-0 renal = system: 786-0 renal
ACHN renal = system: ACHN renal
CCRF-CEM leukemia = system: CCRF-CEM leukemia
COLO 205 colon = system: COLO 205 colon
HCT-116 colon = system: HCT-116 colon
LOX IMVI melanoma = system: LOX IMVI melanoma
MDA-MB-231 breast = system: MDA-MB-231 breast
NCI-H522 lung = system: NCI-H522 lung
OVCAR-8 ovarian = system: OVCAR-8 ovarian
SF-268 CNS = system: SF-268 CNS
SN12C renal = system: SN12C renal
T-47D breast = system: T-47D breast

CSc1n[nH]c2c1c(C)nn2-c1ccccc1
TGI (A549 NSCLC): > 100 µM
TGI (BT-549 breast): > 100 µM
TGI (EKVX NSCLC): > 100 µM
TGI (HCC-2998 colon): > 100 µM
TGI (HCT-15 colon): > 100 µM
TGI (HL-60(TB) leukemia): > 100 µM
TGI (HOP-92 NSCLC): > 100 µM
TGI (HT29 colon): > 100 µM
TGI (IGROV1 ovarian): > 100 µM
TGI (K-562 leukemia): > 100 µM
TGI (M14 melanoma): > 100 µM
TGI (MCF7 breast): > 100 µM
TGI (MDA-MB-435): > 100 µM
TGI (MOLT-4 leukemia): > 100 µM
TGI (NCI-H226 lung): > 100 µM
TGI (NCI-H23 lung): > 100 µM
TGI (NCI-H460 lung): > 100 µM
TGI (OVCAR-3 ovarian): > 100 µM
TGI (OVCAR-4 ovarian): > 100 µM
TGI (OVCAR-5 ovarian): > 100 µM
TGI (PC-3 prostate): > 100 µM
TGI (RPMI-8226 leukemia): > 100 µM
TGI (RXF 393 renal): > 100 µM
TGI (SF-539 CNS): > 100 µM
TGI (SK-MEL-2 melanoma): > 100 µM
TGI (SK-MEL-28 melanoma): > 100 µM
TGI (SK-MEL-5 melanoma): > 100 µM
TGI (SK-OV-3 ovarian): > 100 µM
TGI (SNB-19 CNS): > 100 µM
TGI (SR leukemia): > 100 µM
TGI (SW-620 colon): > 100 µM
TGI (TK-10 renal): > 100 µM
TGI (U251 CNS): > 100 µM
TGI (UACC-257 melanoma): > 100 µM
TGI (UACC-62 melanoma): > 100 µM
TGI (UO-31 renal): > 100 µM

C#CCn1c(=O)c(I)cn(/C(=C\C(=O)OCC)C(=O)OCC)c1=O
TGI (A498 renal): 31.9 µM
TGI (A549 NSCLC): > 100 µM
TGI (DU-145 prostate): 31.3 µM
TGI (HOP-62 NSCLC): 33.6 µM
TGI (HS 578T breast): > 100 µM
TGI (KM12 colon): 31.7 µM
TGI (MDA-MB-435): 30.9 µM
TGI (NCI-H226 lung): 38.2 µM
TGI (NCI-H460 lung): 39.9 µM
TGI (NCI/ADR-RES ovarian): 65.1 µM
TGI (OVCAR-5 ovarian): 40.2 µM
TGI (SF-295 CNS): 36.8 µM
TGI (SF-539 CNS): 33.4 µM
TGI (SK-MEL-2 melanoma): 37.2 µM
TGI (SK-OV-3 ovarian): 31.8 µM
TGI (SNB-19 CNS): 64 µM
TGI (SNB-75 CNS): 30.9 µM
TGI (U251 CNS): 29.1 µM
TGI (UACC-62 melanoma): 30.6 µM

C=C(C)[C@@H]1CC[C@]2(C)[C@H](CC=C3[C@@H]4CC(C)(C)CC[C@]4(CO)CC[C@]32C)[C@@]1(C)CCCN
GI50 (A498 renal): 1.49 µM
TGI (A498 renal): 2.81 µM
GI50 (CAKI-1 renal): 1.73 µM
TGI (CAKI-1 renal): 3.1 µM
GI50 (K-562 leukemia): 2.17 µM
TGI (K-562 leukemia): 8.26 µM
GI50 (M14 melanoma): 1.65 µM
TGI (M14 melanoma): 3.1 µM
GI50 (MALME-3M melanoma): 1.55 µM
TGI (MALME-3M melanoma): 2.96 µM
GI50 (MDA-MB-435): 1.62 µM
TGI (MDA-MB-435): 2.98 µM
GI50 (NCI-H226 lung): 5.31 µM
TGI (NCI-H226 lung): 27.7 µM
GI50 (SF-539 CNS): 1.65 µM
TGI (SF-539 CNS): 3.02 µM
GI50 (SK-MEL-2 melanoma): 1.98 µM
TGI (SK-MEL-2 melanoma): 3.58 µM
GI50 (SK-MEL-5 melanoma): 1.68 µM
TGI (SK-MEL-5 melanoma): 3.05 µM
GI50 (SK-OV-3 ovarian): 1.88 µM
TGI (SK-OV-3 ovarian): 3.33 µM
GI50 (UACC-62 melanoma): 1.68 µM
TGI (UACC-62 melanoma): 3.05 µM

CC/C=C\C[C@H](O)C/C=C1/C(=O)C=C[C@@H]1C/C=C\CCCC(=O)OCCS(=O)(=O)c1ccccc1
GI50 (786-0 renal): 3.22 µM
TGI (786-0 renal): 8.61 µM
GI50 (A498 renal): 19.1 µM
TGI (A498 renal): 35.5 µM
GI50 (A549 NSCLC): 6.04 µM
TGI (A549 NSCLC): 25.8 µM
GI50 (ACHN renal): 3.17 µM
TGI (ACHN renal): 10.3 µM
GI50 (CAKI-1 renal): 3.86 µM
TGI (CAKI-1 renal): 13.7 µM
GI50 (CCRF-CEM leukemia): 2.44 µM
TGI (CCRF-CEM leukemia): 9.26 µM
GI50 (COLO 205 colon): 2.85 µM
TGI (COLO 205 colon): 6.89 µM
GI50 (DU-145 prostate): 5.24 µM
TGI (DU-145 prostate): 17.8 µM
GI50 (EKVX NSCLC): 12.2 µM
TGI (EKVX NSCLC): 30.5 µM
GI50 (HCC-2998 colon): 1.99 µM
TGI (HCC-2998 colon): 3.64 µM
GI50 (HCT-116 colon): 2.35 µM
TGI (HCT-116 colon): 5.06 µM
GI50 (HCT-15 colon): 2.84 µM
TGI (HCT-15 colon): 11.4 µM
GI50 (HL-60(TB) leukemia): 2.84 µM
TGI (HL-60(TB) leukemia): 12.3 µM
GI50 (HOP-62 NSCLC): 3.47 µM
TGI (HOP-62 NSCLC): 10.5 µM
GI50 (HOP-92 NSCLC): 6.87 µM
TGI (HOP-92 NSCLC): 19.4 µM
GI50 (HS 578T breast): 23.9 µM
TGI (HS 578T breast): > 100 µM
GI50 (HT29 colon): 3.29 µM
TGI (HT29 colon): 8.54 µM
GI50 (IGROV1 ovarian): 6.26 µM
TGI (IGROV1 ovarian): 23.3 µM
GI50 (K-562 leukemia): 3.04 µM
TGI (K-562 leukemia): 63.8 µM
GI50 (KM12 colon): 2.09 µM
TGI (KM12 colon): 6.05 µM
GI50 (LOX IMVI melanoma): 1.44 µM
TGI (LOX IMVI melanoma): 3.66 µM
GI50 (M14 melanoma): 3.67 µM
TGI (M14 melanoma): 13.7 µM
GI50 (MALME-3M melanoma): 6.71 µM
TGI (MALME-3M melanoma): 22.3 µM
GI50 (MCF7 breast): 2.39 µM
TGI (MCF7 breast): 18.6 µM
GI50 (MDA-MB-231 breast): 5.34 µM
TGI (MDA-MB-231 breast): 20.7 µM
GI50 (MDA-MB-435): 2.51 µM
TGI (MDA-MB-435): 8.26 µM
GI50 (MOLT-4 leukemia): 2.83 µM
TGI (MOLT-4 leukemia): 13.4 µM
GI50 (NCI-H226 lung): 2.69 µM
TGI (NCI-H226 lung): 6.39 µM
GI50 (NCI-H23 lung): 2.82 µM
TGI (NCI-H23 lung): 10.6 µM
GI50 (NCI-H460 lung): 2.53 µM
TGI (NCI-H460 lung): 6.35 µM
GI50 (NCI-H522 lung): 1.76 µM
TGI (NCI-H522 lung): 4.13 µM
GI50 (NCI/ADR-RES ovarian): 3.43 µM
TGI (NCI/ADR-RES ovarian): 20.5 µM
GI50 (OVCAR-3 ovarian): 3.19 µM
TGI (OVCAR-3 ovarian): 12 µM
GI50 (OVCAR-4 ovarian): 4.05 µM
TGI (OVCAR-4 ovarian): 16.9 µM
GI50 (OVCAR-5 ovarian): 12.4 µM
TGI (OVCAR-5 ovarian): 29.5 µM
GI50 (OVCAR-8 ovarian): 4.07 µM
TGI (OVCAR-8 ovarian): 15.3 µM
GI50 (PC-3 prostate): 3.83 µM
TGI (PC-3 prostate): 10.9 µM
GI50 (RPMI-8226 leukemia): 2.7 µM
TGI (RPMI-8226 leukemia): 8.25 µM
GI50 (RXF 393 renal): 2.75 µM
TGI (RXF 393 renal): 6.47 µM
GI50 (SF-268 CNS): 4.37 µM
TGI (SF-268 CNS): 22.9 µM
GI50 (SF-295 CNS): 3.74 µM
TGI (SF-295 CNS): 14.1 µM
GI50 (SF-539 CNS): 4.68 µM
TGI (SF-539 CNS): 16.9 µM
GI50 (SK-MEL-2 melanoma): 4.14 µM
TGI (SK-MEL-2 melanoma): 17.9 µM
GI50 (SK-MEL-28 melanoma): 2.72 µM
TGI (SK-MEL-28 melanoma): 8.02 µM
GI50 (SK-MEL-5 melanoma): 1.99 µM
TGI (SK-MEL-5 melanoma): 4.06 µM
GI50 (SK-OV-3 ovarian): 6.38 µM
TGI (SK-OV-3 ovarian): 27.7 µM
GI50 (SN12C renal): 3.62 µM
TGI (SN12C renal): 19.1 µM
GI50 (SNB-19 CNS): 5.06 µM
TGI (SNB-19 CNS): 19.4 µM
GI50 (SNB-75 CNS): 17.2 µM
TGI (SNB-75 CNS): 88.8 µM
GI50 (SR leukemia): 2.87 µM
TGI (SR leukemia): 13.2 µM
GI50 (SW-620 colon): 4.07 µM
TGI (SW-620 colon): 14.9 µM
GI50 (T-47D breast): 3.76 µM
TGI (T-47D breast): 18.7 µM
GI50 (TK-10 renal): 5.58 µM
TGI (TK-10 renal): 17.3 µM
GI50 (U251 CNS): 3.35 µM
TGI (U251 CNS): 12.5 µM
GI50 (UACC-257 melanoma): 4.54 µM
TGI (UACC-257 melanoma): 17.3 µM
GI50 (UACC-62 melanoma): 2.48 µM
TGI (UACC-62 melanoma): 6.29 µM
GI50 (UO-31 renal): 2.37 µM
TGI (UO-31 renal): 6.31 µM
